Measured values from ChEMBL document CHEMBL1201862, “PubChem BioAssay data set” (2004).
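Tested at 5 concentrations; 48 h exposure; 96-well plates; endpoints linearly interpolated, else capped at highest concentration. GI50 = concentration required for 50% inhibition of growth.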 Calls of active or inactive are those of the source. Rule as the data show it: active = GI50 up to about 1.1 µM and inactive = higher.

Experiments:
Assay in all cases: inhibition of tumour cell growth, NCI panel, 48 h
[1] = system: 786-0
[2] = system: A498
[3] = system: A549
[4] = system: ACHN
[5] = system: CAKI-1
[6] = system: CCRF-CEM
[7] = system: COLO 205
[8] = system: DLD-1
[9] = system: DMS-273
[10] = system: EKVX
[11] = system: HCC 2998
[12] = system: HCT-116
[13] = system: HCT-15
[14] = system: HL-60
[15] = system: HOP-18
[16] = system: HOP-62
[17] = system: HOP-92
[18] = system: HT-29
[19] = system: IGROV-1
[20] = system: K562
[21] = system: KM-20L2
[22] = system: KM12
[23] = system: LOX IMVI
[24] = system: LXFL 529
[25] = system: M14
[26] = system: M19-MEL
[27] = system: MOLT-4
[28] = system: Malme-3M
[29] = system: NCI-H226
[30] = system: NCI-H23
[31] = system: NCI-H460
[32] = system: NCI-H522
[33] = system: OVCAR-3
[34] = system: OVCAR-4
[35] = system: OVCAR-5
[36] = system: OVCAR-8
[37] = system: RPMI-8226
[38] = system: RXF 393
[39] = system: SF-268
[40] = system: SF-295
[41] = system: SF-539
[42] = system: SK-MEL-28
[43] = system: SK-MEL-2
[44] = system: SK-MEL-5
[45] = system: SK-OV-3
[46] = system: SN12C
[47] = system: SNB-75
[48] = system: SNB-78
[49] = system: SR
[50] = system: SW-620
[51] = system: TK-10
[52] = system: U-251
[53] = system: UACC-257
[54] = system: UACC-62
[55] = system: UO-31
[56] = system: DMS-114
[57] = system: XF498

Measured: GI50

O=C(CC(=O)c1cccc2ccccc12)C(=O)Nc1nccs1
inactive: [1] > 100 µM | [2] > 100 µM | [3] > 100 µM | [4] > 100 µM | [5] > 100 µM | [6] > 100 µM | [7] > 100 µM | [8] > 100 µM | [9] > 100 µM | [10] > 100 µM | [11] > 100 µM | [12] > 100 µM | [14] > 100 µM | [15] > 100 µM | [16] > 100 µM | [17] > 100 µM | [18] > 100 µM | [19] > 100 µM | [20] > 100 µM | [21] > 100 µM | [22] > 100 µM | [23] > 100 µM | [24] > 100 µM | [25] > 100 µM | [26] > 100 µM | [27] > 100 µM | [28] > 100 µM | [29] > 100 µM | [30] > 100 µM | [31] > 100 µM | [32] > 100 µM | [33] > 100 µM | [34] > 100 µM | [35] > 100 µM | [36] > 100 µM | [37] > 100 µM | [38] > 100 µM | [39] > 100 µM | [40] > 100 µM | [41] > 100 µM | [42] > 100 µM | [43] > 100 µM | [44] > 100 µM | [45] > 100 µM | [46] > 100 µM | [47] 66.2 µM | [48] > 100 µM | [49] > 100 µM | [50] > 100 µM | [51] > 100 µM | [52] > 100 µM | [53] > 100 µM | [54] > 100 µM | [55] > 100 µM
> 100 µM: [13]

COc1ccc(/C=C/C(=O)c2c(-c3ccccc3)nn(C)c(=O)c2N2CCCC2)cc1
> 100 µM: [13]
inactive: [1] 82 µM | [2] > 100 µM | [3] > 100 µM | [4] > 100 µM | [6] > 100 µM | [7] > 100 µM | [8] > 100 µM | [56] > 100 µM | [9] > 100 µM | [10] > 100 µM | [12] 87.9 µM | [14] 20.9 µM | [15] > 100 µM | [17] 3.69 µM | [18] > 100 µM | [19] > 100 µM | [20] 57.3 µM | [21] > 100 µM | [23] > 100 µM | [24] > 100 µM | [25] > 100 µM | [26] > 100 µM | [27] 36.9 µM | [31] > 100 µM | [36] > 100 µM | [37] > 100 µM | [39] 87.3 µM | [40] 70.5 µM | [41] 69.2 µM | [42] > 100 µM | [44] > 100 µM | [45] > 100 µM | [46] > 100 µM | [50] > 100 µM | [51] > 100 µM | [52] > 100 µM | [54] > 100 µM | [55] > 100 µM | [57] > 100 µM
